The NIST ThermoML archive (doi:10.1021/acs.jced.6b00350)
“And” between values parts separate entries of the source, which are not always exact repeats. Equal values may be shown once.

Conditions: Liquid, Hot wire method

FC(F)CC(F)(F)F [1,1,1,3,3-pentafluoropropane]
Conditions | thermal conductivity
262.46 K, 31214 kPa | 0.1107 W/m/K
262.47 K, 25250 kPa | 0.1091 W/m/K
262.47 K, 31210 kPa | 0.1107 W/m/K
262.48 K, 8852 kPa | 0.1036 W/m/K
262.48 K, 14086 kPa | 0.1051 W/m/K
262.48 K, 14126 kPa | 0.1053 W/m/K
262.49 K, 4309 kPa | 0.1016 W/m/K
262.49 K, 4315 kPa | 0.1017 W/m/K
262.5 K, 19581 kPa | 0.1068 W/m/K
262.51 K, 19565 kPa | 0.1063 W/m/K
262.54 K, 274 kPa | 0.09981 W/m/K
262.55 K, 264 kPa | 0.09976 W/m/K
262.84 K, 36891 kPa | 0.1121 W/m/K
262.84 K, 36917 kPa | 0.112 W/m/K
262.84 K, 43922 kPa | 0.1137 W/m/K
262.85 K, 43951 kPa | 0.1138 W/m/K
262.85 K, 51258 kPa | 0.1158 W/m/K
262.86 K, 51253 kPa | 0.1158 W/m/K
262.86 K, 58802 kPa | 0.1175 W/m/K
262.87 K, 58823 kPa | 0.1177 W/m/K
262.87 K, 68778 kPa | 0.12 W/m/K
262.87 K, 68811 kPa | 0.1201 W/m/K
262.89 K, 68892 kPa | 0.1203 W/m/K
262.9 K, 68869 kPa | 0.1204 W/m/K
262.97 K, 25291 kPa | 0.1088 W/m/K
262.97 K, 31137 kPa | 0.1104 W/m/K
262.97 K, 31171 kPa | 0.1105 W/m/K
262.98 K, 25286 kPa | 0.1085 W/m/K
263 K, 8795 kPa | 0.1032 W/m/K
263 K, 14094 kPa | 0.105 W/m/K
263 K, 14117 kPa | 0.1048 W/m/K
263.01 K, 8802 kPa | 0.1032 W/m/K
263.01 K, 19580 kPa | 0.1068 W/m/K
263.01 K, 19587 kPa | 0.1069 W/m/K
263.02 K, 4283 kPa | 0.1017 W/m/K
263.04 K, 4280 kPa | 0.1019 W/m/K
263.09 K, 251 kPa | 0.09992 W/m/K
263.09 K, 258 kPa | 0.1003 W/m/K
263.37 K, 43936 kPa | 0.1139 W/m/K
263.37 K, 51250 kPa | 0.1158 W/m/K
263.37 K, 68817 kPa | 0.1201 W/m/K
263.38 K, 43899 kPa | 0.1139 W/m/K
263.38 K, 51246 kPa | 0.1158 W/m/K
263.38 K, 58767 kPa | 0.1179 W/m/K
263.38 K, 58789 kPa | 0.1175 W/m/K
263.38 K, 68795 kPa | 0.12 W/m/K
263.39 K, 68867 kPa | 0.1202 W/m/K
263.39 K, 68877 kPa | 0.1202 W/m/K
281.24 K, 123 kPa | 0.09294 W/m/K
281.26 K, 5085 kPa | 0.09534 W/m/K
281.26 K, 10502 kPa | 0.09742 W/m/K
281.26 K, 16109 kPa | 0.09972 W/m/K
281.27 K, 5081 kPa | 0.09537 W/m/K
281.27 K, 10497 kPa | 0.09773 W/m/K
281.27 K, 16120 kPa | 0.09962 W/m/K
281.27 K, 36450 kPa | 0.1067 W/m/K
281.28 K, 29163 kPa | 0.1037 W/m/K and 0.1042 W/m/K
281.28 K, 36455 kPa | 0.1069 W/m/K
281.29 K, 22340 kPa | 0.1017 W/m/K and 0.1016 W/m/K
281.31 K, 44258 kPa | 0.1094 W/m/K
281.32 K, 44270 kPa | 0.1086 W/m/K
281.36 K, 52956 kPa | 0.1121 W/m/K
281.37 K, 61439 kPa | 0.1132 W/m/K
281.37 K, 61447 kPa | 0.1138 W/m/K
281.39 K, 68582 kPa | 0.1153 W/m/K
281.4 K, 68575 kPa | 0.1156 W/m/K
281.68 K, 36448 kPa | 0.1069 W/m/K
281.69 K, 123 kPa | 0.09324 W/m/K
281.69 K, 16102 kPa | 0.09989 W/m/K
281.69 K, 16110 kPa | 0.0999 W/m/K
281.69 K, 36460 kPa | 0.1069 W/m/K
281.7 K, 123 kPa | 0.09319 W/m/K
281.7 K, 10499 kPa | 0.09772 W/m/K
281.7 K, 29156 kPa | 0.1046 W/m/K
281.71 K, 10506 kPa | 0.09793 W/m/K
281.71 K, 29164 kPa | 0.1045 W/m/K
281.71 K, 44250 kPa | 0.109 W/m/K
281.72 K, 5099 kPa | 0.09526 W/m/K
281.72 K, 22328 kPa | 0.1023 W/m/K
281.72 K, 22339 kPa | 0.1018 W/m/K
281.72 K, 44261 kPa | 0.1096 W/m/K
281.73 K, 5092 kPa | 0.09542 W/m/K
281.74 K, 52967 kPa | 0.1113 W/m/K
281.74 K, 61451 kPa | 0.1132 W/m/K
281.75 K, 52979 kPa | 0.1116 W/m/K
281.75 K, 61458 kPa | 0.1139 W/m/K
281.78 K, 68577 kPa | 0.1148 W/m/K
281.78 K, 68579 kPa | 0.1154 W/m/K
282.14 K, 36443 kPa | 0.1066 W/m/K
282.14 K, 36448 kPa | 0.1061 W/m/K
282.16 K, 44239 kPa | 0.109 W/m/K
282.16 K, 44256 kPa | 0.1087 W/m/K
282.17 K, 29157 kPa | 0.1038 W/m/K
282.17 K, 29166 kPa | 0.1045 W/m/K
282.18 K, 16109 kPa | 0.09967 W/m/K
282.18 K, 52974 kPa | 0.1114 W/m/K
282.18 K, 61442 kPa | 0.114 W/m/K
282.18 K, 61445 kPa | 0.1137 W/m/K
282.19 K, 16097 kPa | 0.09999 W/m/K
282.19 K, 52971 kPa | 0.1111 W/m/K
282.2 K, 10491 kPa | 0.09788 W/m/K
282.2 K, 22326 kPa | 0.1018 W/m/K
282.2 K, 22330 kPa | 0.1022 W/m/K
282.21 K, 122 kPa | 0.09344 W/m/K
282.21 K, 123 kPa | 0.09288 W/m/K
282.21 K, 10493 kPa | 0.0975 W/m/K
282.21 K, 68577 kPa | 0.1158 W/m/K
282.22 K, 5074 kPa | 0.09546 W/m/K
282.22 K, 68599 kPa | 0.1157 W/m/K
282.23 K, 5088 kPa | 0.0957 W/m/K
282.64 K, 61432 kPa | 0.1136 W/m/K
282.65 K, 36437 kPa | 0.1064 W/m/K
282.65 K, 44235 kPa | 0.109 W/m/K
282.65 K, 61439 kPa | 0.1136 W/m/K
282.66 K, 44247 kPa | 0.1092 W/m/K
282.67 K, 52971 kPa | 0.1109 W/m/K
282.67 K, 52972 kPa | 0.1115 W/m/K
282.68 K, 29156 kPa | 0.104 W/m/K
282.68 K, 29162 kPa | 0.104 W/m/K
282.68 K, 68589 kPa | 0.1157 W/m/K
282.69 K, 68577 kPa | 0.1155 W/m/K
282.71 K, 16110 kPa | 0.09975 W/m/K and 0.09954 W/m/K
282.72 K, 22340 kPa | 0.1019 W/m/K
282.73 K, 22342 kPa | 0.1021 W/m/K
282.74 K, 10500 kPa | 0.09762 W/m/K
282.77 K, 5087 kPa | 0.09576 W/m/K
282.78 K, 123 kPa | 0.09344 W/m/K and 0.09326 W/m/K
282.78 K, 5079 kPa | 0.0959 W/m/K
283.17 K, 61441 kPa | 0.1135 W/m/K
283.17 K, 61445 kPa | 0.1138 W/m/K
283.19 K, 68547 kPa | 0.1156 W/m/K
283.19 K, 68582 kPa | 0.1158 W/m/K
283.2 K, 36442 kPa | 0.1068 W/m/K
283.2 K, 36446 kPa | 0.1068 W/m/K
283.2 K, 44231 kPa | 0.109 W/m/K
283.2 K, 44239 kPa | 0.1089 W/m/K
283.2 K, 52973 kPa | 0.1113 W/m/K
283.21 K, 52984 kPa | 0.1112 W/m/K
